Measurements as given in patent publication US20220241429A1, “Antifolate-Carrying Nanoparticles and Their Use in Medicine” (priority 2018, published 2022).

How the values were obtained:
[1] = tested on: Hep3B cells; assay: Cytotoxic or cytostatic activity on Hep3B cells; type: cell-based; settings: Homo sapiens, Incubation time 72 hours, concentration range 40 pM to 500 μM
Protocol: (§1) The cytotoxic or cytostatic activity of methotrexate, the linker-modified methotrexate, MTX-(EG)3-NH2 and of MTX-(EG)3-NH2-loaded gold nanoparticles (GNPs) ([MTX-(EG)3-NHC(O)-(EG)8][alpha-Gall][COOH-(EG)8]@Au) was assessed by treatment of Hep3B and U87MG cells. Incubation time was 72 hours and the concentration range was 40 pM to 500 μM. The results are expressed as IC50 and are as follows: […]

[2] = tested on: U87MG cells; assay: Cytotoxic or cytostatic activity on U87MG cells; type: cell-based; settings: Homo sapiens, U-87 MG; Incubation time 72 hours, concentration range 40 pM to 500 μM
Protocol: as §1

With `CN(Cc1cnc2nc(N)nc(N)c2n1)c1ccc(C(=O)N[C@@H](CCC(=O)O)C(=O)O)cc1` [MTX, Methotrexate] the IC50 [1] was 0.001 to 1 µM and the IC50 [2] was 0.001 to 1 µM.
Work on `CN(Cc1cnc2nc(N)nc(N)c2n1)c1ccc(C(=O)NC(CCC(=O)NCCCOCCOCCOCCCN)C(=O)O)cc1` (stereo not shown) [MTX-(EG)3-NH2, 4-[(3-{2-[2-(3-aminopropoxy)ethoxy]ethoxy}propyl)carbamoyl]-2-[(4-{[(2,4-diaminopteridin-6-yl)methyl](methyl)amino}phenyl)formamido]butanoic acid] yielded an IC50 [1] of 0.001 to 1 µM and an IC50 [2] of 1 to 1000 µM.
